“Also recorded” adds a separate entry of the source. Non-standard residues stand in square brackets, D forms with d. Residues, ends and D or L forms follow the SMILES beside them. No end group written: not given here. *: point of attachment. 5FAM = O=C1OC2(c3ccc(O)cc3Oc3cc(O)ccc32)c2ccc(C(=O)*)cc21; NMeR = CN[C@@H](CCCNC(=N)N)C(=O)O
Experiments:
[1] = tested on: BxPC3 cells, PK-8 cells, AsPC1 cells and MIA-Paca2 cells (PDAC); test: Accumulation of PCPP11 and partially deleted peptides in cells (Reference Example 3); format: cell-based, human; details: for order of the strength of fluorescence in the pancreatic cancer cells: same method as Test Example 2
Description: Test were conducted confirming the accumulation of PCPP11 and partially deleted peptides thereof in BxPC3 cells, PK-8 cells, AsPC1 cells and MIA-Paca2 cells (all cell lines derived from human invasive pancreatic ductal adenocarcinoma (PDAC)) and in H2110 cells (lung adenocarcinoma cells). The peptides shown below in Table 10 were used.
Using the same method as Test Example 2, each peptide was added to each of the cells and then observed under a microscope. In FIG. 16, “full length” indicates the cells to which FAM-PCPP11 was added, “trunc-ver1” indicates cells to which a trunc-ver1-PCPP11 was added, “trunc-ver2” indicates cells to which a trunc-ver2-PCPP11 was added, and “trunc-ver3” indicates cells to which a trunc-ver3-PCPP11 was added.

[2] = human blood plasma having a concentration of 50% by mass; details: up to 120 minutes

In the case of `C[C@@H](O)[C@H](NC(=O)[C@@H](NC(=O)[C@@H]1CCCN1C(=O)[C@H](CCCNC(=N)N)NC(=O)[C@H](CCCNC(=N)N)NC(=O)c1ccc2c(c1)C(=O)OC21c2ccc(O)cc2Oc2cc(O)ccc21)[C@@H](C)O)C(=O)N[C@@H](Cc1c[nH]c2ccccc12)C(=O)N[C@@H](Cc1c[nH]cn1)C(=O)O` [FAM-trunc-ver3-PCPP11, [FAM]-RRPTTWH] (5FAM-RRPTTWH-OH; C-terminus assumed), the “order of the strength of fluorescence in the pancreatic cancer cells” value [1] is reported as “full-length≥trunc-ver3>trunc-ver1>>trunc-ver2”.

For `C[C@@H](O)[C@H](NC(=O)[C@@H](NC(=O)[C@@H]1CCCN1C(=O)[C@H](CCCNC(=N)N)NC(=O)c1ccc2c(c1)C(=O)OC21c2ccc(O)cc2Oc2cc(O)ccc21)[C@@H](C)O)C(=O)N[C@@H](Cc1c[nH]c2ccccc12)C(=O)N[C@@H](Cc1c[nH]cn1)C(=O)N[C@@H](CCCCN)C(=O)N1CCC[C@H]1C(=O)O` [FAM-trunc-ver1-PCPP11] (5FAM-RPTTWHKP-OH; C-terminus assumed), the “order of the strength of fluorescence in the pancreatic cancer cells” value [1] was “full-length≥trunc-ver3>trunc-ver1>>trunc-ver2”.

For `C[C@@H](O)[C@H](NC(=O)[C@@H](NC(=O)[C@@H]1CCCN1C(=O)[C@H](CCCNC(=N)N)NC(=O)c1ccc2c(c1)C(=O)OC21c2ccc(O)cc2Oc2cc(O)ccc21)[C@@H](C)O)C(=O)N[C@@H](Cc1c[nH]c2ccccc12)C(=O)O` [FAM-trunc-ver4-PCPP11, [FAM]-RPTTW] (5FAM-RPTTW-OH; C-terminus assumed), the “fluorescence detected (absorbed fluorescence)” value ([1]; same method as Test Example 2 (2 μM, 37° C., 2 hours)) was “almost no fluorescence was observed”.

In the case of “[FAM]-RRPTTWHKP (5FAM-RRPTTWHKP-OH; C-terminus assumed; SMILES C[C@@H](O)[C@H](NC(=O)[C@@H](NC(=O)[C@@H]1CCCN1C(=O)[C@H](CCCNC(=N)N)NC(=O)[C@H](CCCNC(=N)N)NC(=O)c1ccc2c(c1)C(=O)OC21c2ccc(O)cc2Oc2cc(O)ccc21)[C@@H](C)O)C(=O)N[C@@H](Cc1c[nH]c2ccccc12)C(=O)N[C@@H](Cc1c[nH]cn1)C(=O)N[C@@H](CCCCN)C(=O)N1CCC[C@H]1C(=O)O)”, the fragment found [2] is reported as “[FAM]-RRPTTWH, 10 min”.

Molecule “R-mR-PTTWHKP-G-RRPTTWHKP (H-R[NMeR]PTTWHKPGRRPTTWHKP-OH; N-terminus and C-terminus assumed; SMILES C[C@@H](O)[C@H](NC(=O)[C@@H](NC(=O)[C@@H]1CCCN1C(=O)[C@H](CCCNC(=N)N)NC(=O)[C@H](CCCNC(=N)N)NC(=O)CNC(=O)[C@@H]1CCCN1C(=O)[C@H](CCCCN)NC(=O)[C@H](Cc1c[nH]cn1)NC(=O)[C@H](Cc1c[nH]c2ccccc12)NC(=O)[C@@H](NC(=O)[C@@H](NC(=O)[C@@H]1CCCN1C(=O)[C@H](CCCNC(=N)N)N(C)C(=O)[C@@H](N)CCCNC(=N)N)[C@@H](C)O)[C@@H](C)O)[C@@H](C)O)C(=O)N[C@@H](Cc1c[nH]c2ccccc12)C(=O)N[C@@H](Cc1c[nH]cn1)C(=O)N[C@@H](CCCCN)C(=O)N1CCC[C@H]1C(=O)O)” has a not cleaved [2] of 100% after 120 minutes.

With “RRPTTWHKP-G-pkhwttprr (H-RRPTTWHKPG[dP][dK][dH][dW][dT][dT][dP][dR][dR]-OH; N-terminus and C-terminus assumed; SMILES C[C@H](O)[C@@H](NC(=O)[C@@H](Cc1c[nH]c2ccccc12)NC(=O)[C@@H](Cc1c[nH]cn1)NC(=O)[C@@H](CCCCN)NC(=O)[C@H]1CCCN1C(=O)CNC(=O)[C@@H]1CCCN1C(=O)[C@H](CCCCN)NC(=O)[C@H](Cc1c[nH]cn1)NC(=O)[C@H](Cc1c[nH]c2ccccc12)NC(=O)[C@@H](NC(=O)[C@@H](NC(=O)[C@@H]1CCCN1C(=O)[C@H](CCCNC(=N)N)NC(=O)[C@@H](N)CCCNC(=N)N)[C@@H](C)O)[C@@H](C)O)C(=O)N[C@@H](C(=O)N1CCC[C@@H]1C(=O)N[C@H](CCCNC(=N)N)C(=O)N[C@H](CCCNC(=N)N)C(=O)O)[C@H](C)O)” the fragment found [2] was “RPTTWHKP-G-pkhwttprr, Start; also recorded: TTWHKP-G-pkhwttprr, Start”.

With “RRPTTWHKP-G-RRPTTWHKP-G-RRPTTWHKP (RRPTTWHKPGRRPTTWHKPGRRPTTWHKP)” the not cleaved [2] was “no degradation products within 120 minutes; 100% at 120 min”.

— US11447525B2 (NIIGATA UNIVERSITY, priority 2018, dated 2022)
